The text below walks through data of patent US5354862A, “Preparation and the use of halopropargylated cyclic quaternary ammonium compounds as antimicrobial agents” (Rohm and Haas Company, priority 1993, dated 1994).

Assay [1] concerns Escherichia coli. The experiment in a line: Broth two-fold serial dilution MIC test. In kind it is cell-based, Escherichia coli (ATCC 11229). The note with it: Table 2, Ecol. The essentials: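 Broth two-fold serial dilutions ran from 500 down to 0.25 ppm, prepared from a stock in acetone/methanol/water (5:3:2). Each tube received a standardized bacterial suspension and was incubated at a temperature suited to the species. MIC is the lowest concentration giving complete growth inhibition.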

Assay [2] deals with Pseudomonas aeruginosa. The experiment in a line: Broth two-fold serial dilution MIC test. In kind it is cell-based, Pseudomonas aeruginosa (ATCC 15442). The essentials:
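Broth two-fold serial dilution MIC (500 to 0.25 ppm) was run against Pseudomonas aeruginosa, with compound from 1% stock in acetone/methanol/water 5:3:2. Vessels inoculated with standardized broth-grown cells were incubated, then scored for growth. MIC is the lowest concentration giving complete growth inhibition.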

In assay [3] the test system is Proteus mirabilis. The experiment in a line: MIC test, side-by-side comparison. In kind it is cell-based. Particulars: Table 4 side-by-side, P. mirabilis; for MIC: Proteus mirabilis. The source says: (§1) A minimum inhibitory concentration (MIC) value is obtained using a broth, two-fold serial dilution test performed as follows: A stock solution or dispersion of the test compound, typically at a concentration of 1%, is made in a 5:3:2 solvent solution of acetone. methanol, and water. A volume of the stock solution is dispensed into culture media to give an initial starting test concentration of 500 ppm compound.
(§2) When the test is ready to be done, each vessel in the dilution series, except the first vessel, contains an equal volume of compound free broth. The first vessel contains twice the volume of broth with the starting concentration of test compound. One half of the broth from the first vessel is transferred to the second vessel- After being mixed, one half the resulting volume is removed from the second vessel and transferred to the third vessel. The entire cycle is repeated sufficiently to give a series of concentrations amounting to 500, 250, 125, 63, 31, 16, 8, and 4, 2, 1, 0.5, 0.25 ppm respectively.
(§3) Each vessel is then inoculated with a cell suspension of the appropriate test organism. Bacteria are grown in broth, fungi on agar slants for a time and at a temperature appropriate to the species being tested, and algae are a mixture of green algae and blue-green bacteria grown in a nutrient media. At the end of the growth period, in the case of bacteria, the broth is vortexed to disperse the cells.
(§4) In the case of fungi, the spores are harvested by pipetting water onto the slant and dislodging the spores with a sterile loop. The cell/spore suspension is standardized by controlling incubation time, temperature, and the volume of the diluent. The suspension is then used to inoculate the vessels containing the broth compound.
(§5) The vessels are then incubated at the appropriate temperature. After the incubation, the vessels are examined for growth/no growth. The minimum inhibitory concentration (MIC) is defined as the lowest concentration of compound that results in complete inhibition of growth of the test organism.
(§6) These five compounds were tested side-by-side against six organisms, Pseudomonas aeruginosa (P. aeruginosa), Klebsiella pneurnoniae (K. pneumoniae), Enterobacter aerogenes (E. aerogenes), Proteus mirabilis (P. mirabilis), Staphylococcus aureus (S. aureus), and Aspergillus niger (A. niger). The MIC tests were performed as in example 6.

Assay [4] deals with Enterobacter aerogenes. The experiment in a line: MIC test, side-by-side comparison. In kind it is cell-based. Particulars: Table 4 side-by-side, E. Aerogenes; for MIC: Klebsiella aerogenes.
Text: as §1, §2, §3, §4, §5, §6

The subject of assay [5] is Klebsiella pneurnoniae. The experiment in a line: MIC test, side-by-side comparison. In kind it is cell-based. Particulars: for MIC: read-out: MIC Values.
Text: as §1, §2, §3, §4, §5, §6

Assay [6] has as its system Staphylococcus aureus. As to the kind of experiment: Broth two-fold serial dilution MIC test. In kind it is cell-based, Staphylococcus aureus (ATCC 6538). The essentials: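 Broth two-fold serial dilution from 500 ppm down to 0.25 ppm, compound delivered from acetone/methanol/water stock, inoculated with standardized cell suspension and incubated at an organism-appropriate temperature. MIC is the lowest concentration giving complete growth inhibition.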

Assay [7] has as its system Aspergillus niger. The experiment in a line: Broth two-fold serial dilution MIC test. In kind it is cell-based, Aspergillus niger (ATCC 6275). An outline of the steps:
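Two-fold broth serial dilution from 500 ppm down to 0.25 ppm, compound stock in acetone/methanol/water 5:3:2. Vessels inoculated with standardized spore suspension harvested from agar slants, incubated at a species-appropriate temperature, then scored for growth/no growth. MIC is the lowest concentration giving complete growth inhibition.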

Where [8] appears, read: Pseudomonas aeruginosa, Table 4 side-by-side, P. aeruginosa, read-out: MIC Values.
Where [9] appears, read: Staphylococcus aureus, Table 4 side-by-side, S. aureus, read-out: MIC Values.
Setting [10] is: Aspergillus niger, Table 4 side-by-side, A. niger, read-out: MIC Values.

SMILES strings stand for the structures. Values after ≈ are worked out from the molar mass of the structure shown. Read-outs that look alike come from different tables or passages of the source.

For `CCCCCCCCCCCCCC[N+]1(CC#CI)CCCCC1` [Compound 25, 1-(tetradecyl)-1-(3-iodopropargyl)-piperidinium 4-methylbenzenesulfonate], the MIC in assay [1] (M9G media) is 2 ppm; in assay [1] (TSB media), 16 ppm; in assay [2] (setting [8]), 8 µg/mL; in assay [2] (Table 2, Psae, M9G media), 8 ppm; in assay [2] (Table 2, Psae, TSB media) it was 2 ppm; in assay [3], 4 µg/mL. In addition, the MIC in assay [4] was 1 µg/mL; in assay [5], 4 µg/mL; in assay [6] (setting [9]), 0.5 µg/mL; in assay [6] (Table 2, Saur, M9G media), 0.25 ppm; in assay [6] (Table 2, Saur, TSB media), 0.25 ppm; in assay [7] (setting [10]), 8 µg/mL. The compound also returned an MIC in assay [7] (Table 2, Anig, TSB media) of 8 ppm.
As to `CCCCCCCCCCCCCC[N+]1(CC#CI)CCOCC1` [Compound 41, 4-tetradecyl-4-(3-iodoprolyargyl)-morpholinium benzenesulfonate], the MIC was < 0.25 ppm in assay [1] (M9G media); < 0.25 ppm in assay [1] (TSB media); 8 µg/mL in assay [2] (setting [8]); 2 ppm in assay [2] (Table 2, Psae, M9G media); 4 ppm in assay [2] (Table 2, Psae, TSB media); 4 µg/mL in assay [3]. The MIC was 2 µg/mL in assay [4]; 4 µg/mL in assay [5]; 0.5 µg/mL in assay [6] (setting [9]); < 0.25 ppm in assay [6] (Table 2, Saur, M9G media); 0.5 ppm in assay [6] (Table 2, Saur, TSB media); 8 µg/mL in assay [7] (setting [10]). The same compound registered an MIC in assay [7] (Table 2, Anig, TSB media) of 2 ppm.
As for `IC#CCN1CCCCC1` [Compound J1, N-(3-iodo-2-propynyl)-piperidine, reference compound], the MIC in assay [2] (setting [8]) was > 500 µg/mL; in assay [3] it was 125 µg/mL (≈ 502 µM); in assay [4] it was 32 µg/mL (≈ 128 µM); in assay [5], 125 µg/mL (≈ 502 µM); in assay [6] (setting [9]) it was 125 µg/mL (≈ 502 µM); in assay [7] (setting [10]), 16 µg/mL (≈ 64.2 µM).
Take `CCCCCCCCCCCCCC[N+]1(CC#CI)CCOCC1` [Compound 42, 4-tetradecyl-4-(3-iodopropargyl)-morpholinium methanesulfonate]: the MIC in assay [1] (M9G media) is recorded as < 0.25 ppm; in assay [1] (TSB media), < 0.25 ppm; in assay [2] (Table 2, Psae, M9G media) it was 1 ppm; in assay [2] (Table 2, Psae, TSB media), 4 ppm; in assay [6] (Table 2, Saur, M9G media), < 0.25 ppm; in assay [6] (Table 2, Saur, TSB media), 0.5 ppm. This compound showed an MIC in assay [7] (Table 2, Anig, TSB media) of 1 ppm. Also, the “MIC Values” in assay [2] (Table 4 side-by-side, P. aeruginosa) amounted to 16 ppm; in assay [3], 4 ppm; in assay [4], 1 ppm; in assay [5] (Table 4 side-by-side, K. Pneumoniae) it was 4 ppm; in assay [6] (Table 4 side-by-side, S. aureus), 1 ppm; in assay [7] (Table 4 side-by-side, A. niger) it was 8 ppm.
Turning to `IC#CCN1CCOCC1` [Compound J2, N-(3-iodo-2-propynyl)-morpholine, reference compound], the MIC in assay [2] (setting [8]) is > 500 µg/mL; in assay [3], 500 µg/mL (≈ 1990 µM); in assay [4] it was 250 µg/mL (≈ 996 µM); in assay [5], 500 µg/mL (≈ 1990 µM); in assay [6] (setting [9]), 250 µg/mL (≈ 996 µM); in assay [7] (setting [10]), 8 µg/mL (≈ 31.9 µM).
